One assay deals with DLD-1. Kind of assay: Bioassay for apoptosis (apoptotic EC50). It is filed as cell-based, human. The note with it: Homo sapiens, unit inferred. The method, then:
(§1) Cells were cultured at 1.5×10^5 cells/well in 12 well plates. Cells were allowed to adhere overnight, then incubated with novel test compounds at 0.01, 0.1, 1, 5, 10 & 20 μg/mL for 1, 2 and 3 days. After treatment, cells (floating+trypsin released adherent cells) were pelleted, washed and stained with 2 μg/ml DAPI (4′,6-diamidine-2′-phenylindole dihydrochloride) in 100% methanol for 15 minutes at 37° C. and/or 3′-OH ends resulting from DNA fragmentation were detected with the TUNEL (terminal deoxynucleotidyl transferase-mediated dUTP-X 3′ nick end-labeling) technique, and then viewed using a Zeiss ICM 405 microscope. Cells whose nucleus contained clearly condensed or fragmented chromatin or stained for fragmented DNA in the TUNEL assay were scored as apoptotic. Data are presented as percent cells undergoing apoptosis.

The next assay concerns DU-145. In words: Bioassay for apoptosis (apoptotic EC50). It is filed as cell-based, human. The following applies: Homo sapiens, unit inferred. The method, then: as §1
The test system of a further assay is LnCaP. Kind of assay: Bioassay for apoptosis (apoptotic EC50). The following applies: Homo sapiens, unit inferred. The format is cell-based, human. As to the method:
as §1

The test system of the next assay is MCF-7. Kind of assay: Bioassay for apoptosis (apoptotic EC50). The format is cell-based, human. The note with it: Homo sapiens, MCF7, MCF-7; unit inferred. The method, then: as §1
In a further assay the test system is MDA-MB-435. Kind of assay: Bioassay for apoptosis (apoptotic EC50). The format is cell-based, human. The note with it: Homo sapiens, MDA-MB-435, MDA-MB-435; unit inferred; read-out: apoptotic EC50. As to the method: as §1
The next assay has as its system PC-3. Kind of assay: Bioassay for apoptosis (apoptotic EC50). The note with it: Homo sapiens, PC-3, PC-3; unit inferred. The format is cell-based, human. As to the method: as §1
The next assay deals with C-170. In words: Bioassay for apoptosis (apoptotic EC50). It is filed as cell-based, human. The following applies: Homo sapiens, C170, C-170; unit inferred. The method, then:
as §1

The next assay deals with HT-29. Kind of assay: Bioassay for apoptosis (apoptotic EC50). It is filed as cell-based, human. The note with it: Homo sapiens, unit inferred. The method, then: as §1
Another assay deals with ME-180. In words: Bioassay for apoptosis (apoptotic EC50). It is filed as cell-based, human. The following applies: Homo sapiens, ME-180, ME-180; unit inferred. The method, then:
as §1

Another assay has as its system RL-95-2. In words: Bioassay for apoptosis (apoptotic EC50). The format is cell-based, human. The following applies: Homo sapiens, RL95-2, RL-95-2; unit inferred. As to the method:
as §1

The subject of a further assay is MCF-10A. In words: Bioassay for apoptosis (apoptotic EC50). The format is cell-based. The following applies: Homo sapiens, unit inferred. As to the method: as §1
In assay [1] the test system is human cancer cells from a wide variety of cell lineages. In words: Apoptosis induction in a battery of tumor cells. It is filed as cell-based. The note with it: breast, prostate, leukemia/lymphoid, cervical, ovarian, endometrial, colon, lung cell lines. The method, then:
as §1

The next assay relates to A-549. In words: Bioassay for apoptosis (apoptotic EC50). It is filed as cell-based, human. The following applies: Homo sapiens, A549, unit inferred. The method, then: as §1
The next assay has as its system HL-60. Kind of assay: Bioassay for apoptosis (apoptotic EC50). The following applies: Homo sapiens, HL-60, HL-60; unit inferred. It is filed as cell-based, human. As to the method: as §1
The test system of a further assay is Jurkat. In words: Bioassay for apoptosis (apoptotic EC50). It is filed as cell-based, human. The note with it: Homo sapiens, unit inferred. As to the method: as §1
Another assay relates to T47D. Kind of assay: Bioassay for apoptosis (apoptotic EC50). It is filed as cell-based. The following applies: Homo sapiens, unit inferred. As to the method:
as §1

The test system of a further assay is MDA-MB-231. In words: Bioassay for apoptosis (apoptotic EC50). The format is cell-based, human. The following applies: Homo sapiens, MDA-MB-231, MDA-MB-231; unit inferred. As to the method: as §1
The next assay concerns HMEC. Kind of assay: Bioassay for apoptosis (apoptotic EC50). It is filed as cell-based. The note with it: Homo sapiens, unit inferred. The method, then: as §1

Converted amounts (≈) assume the structure as drawn. Some results are limits rather than exact numbers.

On to `CCCCCCCCCCCCC[C@]1(C)CCc2c(C)c(OCC(=O)O)c(C)c(C)c2O1` [Compound 24, 2,5,7,8-tetramethyl-(2R-(tridecyl)chroman-6-yloxy)acetic acid], for which the concentration giving a half-maximal response (EC50) in the assay with DLD-1, in the assay with DU-145, in the assay with LnCaP, with MCF-7, with MDA-MB-435 and in the assay on PC-3 was greater than 20 µg/mL throughout.
`CCCCCCCCCCCCCCCCC[C@]1(C)CCc2c(C)c(OCC(=O)O)c(C)c(C)c2O1` [Compound 25, 2,5,7,8-tetramethyl-(2R-(heptadecyl)chroman-6-yloxy)acetic acid]: the EC50 (as a rule, the concentration that produces a half-maximal response) with C-170 is greater than 20 µg/mL; in the assay with DLD-1 it was greater than 20 µg/mL; with DU-145 it was 20 to 30 µg/mL (≈ 39.8 to 59.7 µM); in the assay on HT-29 it was greater than 20 µg/mL; in the assay on LnCaP, greater than 20 µg/mL; in the assay on MCF-7, greater than 20 µg/mL. Besides, the EC50 in the assay on MDA-MB-435 was greater than 20 µg/mL; in the assay on ME-180 it was greater than 20 µg/mL; with PC-3 it was 20 to 30 µg/mL (≈ 39.8 to 59.7 µM); in the assay with RL-95-2 it was greater than 20 µg/mL; in the assay with MCF-10A it was greater than 20 µg/mL. Also, in [1], the “growth inhibitory (apoptotic inducing) properties specific for human cancer cells” value (“growth inhibitory” for short) was “effective”.
Regarding `Cc1c(C)c2c(c(C)c1OCC(=O)O)C=C[C@@](C)(CCC[C@H](C)CCC[C@H](C)CCCC(C)C)O2` [Compound 20, 2,5,7,8-tetramethyl-(2R-(4R,8R,12-trimethyltridecyl)chroman-3-ene-6-yloxy)acetic acid], the EC50 was 20 to 30 µg/mL (≈ 41.1 to 61.6 µM) in the assay on A-549; 5 to 10 µg/mL (≈ 10.3 to 20.5 µM) in the assay with DU-145; 10 µg/mL (≈ 20.5 µM) in the assay on HL-60; 10 to 20 µg/mL (≈ 20.5 to 41.1 µM) in the assay with Jurkat; 5 to 10 µg/mL (≈ 10.3 to 20.5 µM) in the assay with LnCaP; 5 to 10 µg/mL (≈ 10.3 to 20.5 µM) in the assay on MCF-7. The EC50 was 10 to 20 µg/mL (≈ 20.5 to 41.1 µM) in the assay on MDA-MB-435; 1 to 5 µg/mL (≈ 2.05 to 10.3 µM) in the assay on ME-180; 5 to 10 µg/mL (≈ 10.3 to 20.5 µM) with PC-3; greater than 20 µg/mL in the assay with MCF-10A; 5 to 10 µg/mL (≈ 10.3 to 20.5 µM) with T47D. Further, the “growth inhibitory” value in [1] is given as “effective”.
As for `Cc1c(C)c2c(c(C)c1OCC(=O)O)CC[C@@](C)(CCCC(C)CCCC(C)CCCC(C)C)O2` (stereo partly drawn) [Compound 17], the 50% effective concentration (EC50) was greater than 20 µg/mL with A-549; 20 to 30 µg/mL (≈ 40.9 to 61.4 µM) in the assay on C-170; 10 to 20 µg/mL (≈ 20.5 to 40.9 µM) with HL-60; greater than 20 µg/mL in the assay on HT-29; 10 to 20 µg/mL (≈ 20.5 to 40.9 µM) in the assay with Jurkat; 10 to 20 µg/mL (≈ 20.5 to 40.9 µM) in the assay on LnCaP. Moreover, the 50% effective concentration (EC50) was 10 to 20 µg/mL (≈ 20.5 to 40.9 µM) with MCF-7, 20 to 30 µg/mL (≈ 40.9 to 61.4 µM) in the assay on ME-180, greater than 20 µg/mL in the assay with MCF-10A and 10 to 20 µg/mL (≈ 20.5 to 40.9 µM) in the assay with T47D. For the same compound, the “growth inhibitory” value in assay [1] is “effective”.
As to `CC(C)=CCC/C(C)=C\C=C/[C@]1(C)CCc2c(C)c(OCC(=O)O)c(C)c(C)c2O1` [Compound 26], the 50% effective concentration (EC50) in the assay on A-549 is greater than 20 µg/mL; with C-170, 20 to 30 µg/mL (≈ 48.5 to 72.7 µM); in the assay with DLD-1 it was 20 to 40 µg/mL (≈ 48.5 to 97 µM); in the assay with DU-145, greater than 20 µg/mL; with HL-60, greater than 20 µg/mL; in the assay with HT-29 it was greater than 20 µg/mL. The EC50 in the assay on Jurkat is 20 to 30 µg/mL (≈ 48.5 to 72.7 µM); in the assay on LnCaP, 10 to 20 µg/mL (≈ 24.2 to 48.5 µM); with MCF-7, greater than 20 µg/mL; in the assay with MDA-MB-435, 20 to 40 µg/mL (≈ 48.5 to 97 µM); with PC-3, greater than 20 µg/mL; in the assay with RL-95-2, 20 to 30 µg/mL (≈ 48.5 to 72.7 µM). The EC50 in the assay on MCF-10A and with T47D was greater than 20 µg/mL in each case. The “growth inhibitory” value in assay [1] is recorded as “effective”.
For the compound `Cc1cc(OCC(=O)O)c(C)c2c1O[C@](C)(CCC[C@H](C)CCC[C@H](C)CCCC(C)C)CC2` [Compound 7, 2,5,8-trimethyl-(2R-(4R,8R,12-trimethyltridecyl)chroman-6-yloxy) acetic acid], the EC50 in the assay on C-170 is 10 to 20 µg/mL (≈ 21.1 to 42.1 µM); with HL-60, 5 to 10 µg/mL (≈ 10.5 to 21.1 µM); in the assay on LnCaP, 2.5 to 5 µg/mL (≈ 5.27 to 10.5 µM); in the assay with MCF-7 it was 10 to 20 µg/mL (≈ 21.1 to 42.1 µM); with MDA-MB-231, 5 to 10 µg/mL (≈ 10.5 to 21.1 µM); in the assay on MDA-MB-435 it was 5 to 10 µg/mL (≈ 10.5 to 21.1 µM). Also, the concentration giving a half-maximal response (EC50) is 5 to 10 µg/mL (≈ 10.5 to 21.1 µM) in the assay with ME-180; 5 to 10 µg/mL (≈ 10.5 to 21.1 µM) with PC-3; 5 to 10 µg/mL (≈ 10.5 to 21.1 µM) with RL-95-2; greater than 20 µg/mL in the assay on HMEC; greater than 20 µg/mL in the assay with MCF-10A; greater than 20 µg/mL in the assay on T47D. Further, in assay [1], the “growth inhibitory” value is “effective”.

The values are drawn from patent US8148424B2, “Tocopherols, tocotrienols, other chroman and side chain derivatives and uses thereof” (Research Development Foundation, priority 1998, dated 2012).
